Measurements published in patent US20260263334A1, “COMPOSITIONS CONTAINING NITRATE-RICH FOODS AND EXTRACTS FOR SHIFTING THE ORAL MICROBIOME” (WM. WRIGLEY JR. COMPANY, priority 2023, published 2026).

Legend:
[1] = tested on: Veillonella atypica (ATCC 17744) (V.a.); assay: nitrate reductase (NR) activity of V.a (Griess test); type: cell-based; settings: for NR activity of CHX treated V.a (OD): Reduced Transport buffer
Experimental: (§1) For evaluation of nitric oxide producing capability of oral bacteria, overnight cultures of test organisms were washed once and transferred into a medium without any nitrate or nitrite compounds. A 0.5% (or 1%) KNO3 was added to the medium, and further incubated anaerobically at 37° C. for 24-48 hours. The concentration of nitrite (due to reduction of nitrate by nitrate reductase) was determined by Griess Test over a desired period of time.
(§2) To examine the effect of natural and chemical antimicrobial agents on NO production, test bacteria were pre-exposed to magnolia bark extract (MBE) (a natural germ-kill compound), peppermint oil, and chlorhexidine (CHX). The activities of nitrate reductase from oral bacteria were assayed by Griess test as described above. No treatment controls were included for each test bacterial species. The production of nitrite was reduced if the test antimicrobial compounds affected the nitrate reductase activity. Dose response curves were prepared.
V. atypica was grown in RCM medium without (NH4)2SO4 (to avoid the NH4 affecting Griess reagent); and without agar (0.05%, to avoid affecting the OD measurement).
The method used was the same as that for A.a., except the V.a cell concentration was adjusted to OD550 nm=0.7 (10^8 CFR/ml) in Reduced Transport buffer. The NR activity was also determined in the same buffer system. […]
(§3) Test bacteria cells were incubated with 1% cysteine in growth medium and 0.3% of a nitrate source. Controls contained no cysteine.

oral microbiota = settings: mouthwash containing 0.12% of chlorhexidine, cited from earlier work
[2] = tested on: Aggregatibacter actinomycetemcomitans (A.a.); assay: nitrate reductase (NR) activity of A.a. (Griess test); type: cell-based
Experimental: as §1, §2
A. actinomycetemcomitans (A.a.) was grown anaerobically in THB broth supplemented with 1% yeast extract with 0.001% Hemin, and 0.0001% Vitamin K.
The nitrate source KNO3 (0.1% final) was added to respective growth media for individual test bacteria and incubated for 24-48 hours, then 20 μl of the culture broth was withdrawn and tested for nitrite with Griess reagent.
Test bacteria were grown in respective media anaerobically for 48 hours. Cells were centrifuged and re-suspended in buffer or fresh medium for NR activity testing. […]
as §3

[3] = tested on: Aggregatibacter actinomycetemcomitans (A.a.); assay: short-term time-kill against A.a. (viable colony on agar); type: cell-based; design: key to viable colony: +: viable colony; −: no viable colony; settings: for viable colony: stop reagent
Experimental: Fresh grown cells were harvested and adjusted to OD550 nm=0.5, then mixed with CHX (75-1,000 μg/ml). At different time points, an aliquot of cells was removed and mixed with (or without) stop reagent (0.5% Tween 80 and 0.07% Lecithin) to stop the CHX reaction on cells. The treated cells were centrifuged to remove the supernatant that contained CHX, and the cell pellet was spotted on BHI agar (supplemented with 0.001% Hemin, 0.0001% Vitamin K) for cell viability. Fresh grown cells were harvested and mixed with MBE for a short period of time and the viability of treated cells were evaluated. 10% DMSO was used to wash the treated cells and the MBE was removed from the assay system. Immediately after treatment, 10% DMSO was added to the cell mixture. The cell mixture was then centrifuged and washed once more with 10% DMSO. Cells treated with MBE for various times were spotted on an agar plate, […] and noted for viable colony development.

[4] = chlorhexidine >=10 μg/ml, summary

[H]/N=C(\N/C(=N/[H])NCCCCCCNC(=N)NC(=N)Nc1ccc(Cl)cc1)Nc1ccc(Cl)cc1 [CHX, chlorhexidine]
NR activity of CHX treated V.a (OD) ([1]; CHX 10 μg/ml, 1 min Treatment): 0.266 OD
NR activity of CHX treated V.a (OD) ([1]; CHX 10 μg/ml, 10 min Treatment): 0.300 OD
NR activity of CHX treated V.a (OD) ([1]; CHX 50 μg/ml, 1 min Treatment): 0.304 OD
NR activity of CHX treated V.a (OD) ([1]; CHX 50 μg/ml, 10 min Treatment): 0.282 OD
NR activity of CHX treated V.a (OD) ([1]; CHX 100 μg/ml, 1 min Treatment): 0.255 OD
NR activity of CHX treated V.a (OD) ([1]; CHX 100 μg/ml, 10 min Treatment): 0.280 OD
NR activity of CHX treated V.a (OD) ([1]; CHX 250 μg/ml, 1 min Treatment): 0.190 OD
NR activity of CHX treated V.a (OD) ([1]; CHX 250 μg/ml, 10 min Treatment): 0.161 OD
NR activity of CHX treated V.a (OD) ([1]; CHX 500 μg/ml, 1 min Treatment): 0.170 OD
NR activity of CHX treated V.a (OD) ([1]; CHX 500 μg/ml, 10 min Treatment): 0.162 OD
activities of nitrate reductase [1, 4]: significantly inhibits
VSC-producing bacteria and enteric nitric oxide producing bacteria (oral microbiota): reduced
oral and plasma nitrite levels (oral microbiota; healthy human volunteers): reduced
systolic and diastolic blood pressure (oral microbiota; healthy human volunteers): sustained increase
NR activity of CHX treated A.a. ([2]; CHX 100 μg/ml for 10 min): inhibited NR activity
OD at 550 nm for A.a. NR activity test ([2]; CHX 100 μg/ml, 1 min treatment, 2nd trial, 2 hr): 0.212 OD
OD at 550 nm for A.a. NR activity test ([2]; CHX 100 μg/ml, 1 min treatment, 2nd trial, 3 hr): 0.856 OD
OD at 550 nm for A.a. NR activity test ([2]; CHX 100 μg/ml, 1 min treatment, 3rd trial, 2 hr): 0.844 OD
OD at 550 nm for A.a. NR activity test ([2]; CHX 100 μg/ml, 10 min treatment, 1st trial, 2 hr): 0.117 OD
OD at 550 nm for A.a. NR activity test ([2]; CHX 100 μg/ml, 10 min treatment, 1st trial, 3 hr): 0.130 OD
OD at 550 nm for A.a. NR activity test ([2]; CHX 100 μg/ml, 10 min treatment, 2nd trial, 2 hr): 0.284 OD
OD at 550 nm for A.a. NR activity test ([2]; CHX 200 μg/ml, 1 min treatment, 2nd trial, 2 hr): 0.279 OD
OD at 550 nm for A.a. NR activity test ([2]; CHX 200 μg/ml, 1 min treatment, 2nd trial, 3 hr): 0.849 OD
OD at 550 nm for A.a. NR activity test ([2]; CHX 200 μg/ml, 1 min treatment, 3rd trial, 2 hr): 0.852 OD
OD at 550 nm for A.a. NR activity test ([2]; CHX 200 μg/ml, 10 min treatment, 1st trial, 2 hr): 0.125 OD
OD at 550 nm for A.a. NR activity test ([2]; CHX 200 μg/ml, 10 min treatment, 1st trial, 3 hr): 0.127 OD
OD at 550 nm for A.a. NR activity test ([2]; CHX 200 μg/ml, 10 min treatment, 2nd trial, 2 hr): 0.125 OD
OD at 550 nm for A.a. NR activity test ([2]; CHX 300 μg/ml, 1 min treatment, 1st trial, 2 hr): 0.263 OD
OD at 550 nm for A.a. NR activity test ([2]; CHX 300 μg/ml, 1 min treatment, 2nd trial, 2 hr): 0.134 OD
OD at 550 nm for A.a. NR activity test ([2]; CHX 300 μg/ml, 1 min treatment, 2nd trial, 3 hr): 0.260 OD
OD at 550 nm for A.a. NR activity test ([2]; CHX 300 μg/ml, 1 min treatment, 3rd trial, 2 hr): 0.853 OD
OD at 550 nm for A.a. NR activity test ([2]; CHX 300 μg/ml, 10 min treatment, 1st trial, 2 hr): 0.115 OD
OD at 550 nm for A.a. NR activity test ([2]; CHX 300 μg/ml, 10 min treatment, 1st trial, 3 hr): 0.130 OD
OD at 550 nm for A.a. NR activity test ([2]; CHX 300 μg/ml, 10 min treatment, 2nd trial, 2 hr): 0.129 OD
OD at 550 nm for A.a. NR activity test ([2]; CHX 500 μg/ml, 1 min treatment, 1st trial, 2 hr): 0.284 OD
OD at 550 nm for A.a. NR activity test ([2]; CHX 500 μg/ml, 1 min treatment, 2nd trial, 2 hr): 0.107 OD
OD at 550 nm for A.a. NR activity test ([2]; CHX 500 μg/ml, 1 min treatment, 2nd trial, 3 hr): 0.213 OD
OD at 550 nm for A.a. NR activity test ([2]; CHX 500 μg/ml, 1 min treatment, 3rd trial, 2 hr): 0.443 OD
OD at 550 nm for A.a. NR activity test ([2]; CHX 500 μg/ml, 10 min treatment, 1st trial, 2 hr): 0.114 OD
OD at 550 nm for A.a. NR activity test ([2]; CHX 500 μg/ml, 10 min treatment, 1st trial, 3 hr): 0.118 OD
OD at 550 nm for A.a. NR activity test ([2]; CHX 500 μg/ml, 10 min treatment, 2nd trial, 2 hr): 0.131 OD
OD at 550 nm for A.a. NR activity test ([2]; CHX 750 μg/ml, 1 min treatment, 1st trial, 2 hr): 0.148 OD
OD at 550 nm for A.a. NR activity test ([2]; CHX 750 μg/ml, 1 min treatment, 2nd trial, 2 hr): 0.107 OD
OD at 550 nm for A.a. NR activity test ([2]; CHX 750 μg/ml, 1 min treatment, 2nd trial, 3 hr): 0.169 OD
OD at 550 nm for A.a. NR activity test ([2]; CHX 750 μg/ml, 1 min treatment, 3rd trial, 2 hr): 0.391 OD
OD at 550 nm for A.a. NR activity test ([2]; CHX 750 μg/ml, 10 min treatment, 1st trial, 2 hr): 0.118 OD
OD at 550 nm for A.a. NR activity test ([2]; CHX 750 μg/ml, 10 min treatment, 1st trial, 3 hr): 0.141 OD
OD at 550 nm for A.a. NR activity test ([2]; CHX 750 μg/ml, 10 min treatment, 2nd trial, 2 hr): 0.112 OD
NR activity of CHX treated A.a. ([2]; CHX 1,000 μg/ml (0.1%) for 1 min): completely inhibited NR activity
OD at 550 nm for A.a. NR activity test ([2]; CHX 1000 μg/ml, 1 min treatment, 1st trial, 2 hr): 0.160 OD
activities of nitrate reductase [2, 4]: significantly inhibits
viable colony ([3]; CHX 75 μg/ml, treatment time 0 min): +
viable colony ([3]; CHX 75 μg/ml, treatment time 5 min): +
viable colony ([3]; CHX 75 μg/ml, treatment time 30 min): +
viable colony ([3]; CHX 75 μg/ml, treatment time 60 min): +
viable colony ([3]; CHX 100 μg/ml, treatment time 0 min): +
viable colony ([3]; CHX 100 μg/ml, treatment time 1 min): +
viable colony ([3]; CHX 100 μg/ml, treatment time 3 min): +
viable colony ([3]; CHX 100 μg/ml, treatment time 5 min): +
viable colony ([3]; CHX 100 μg/ml, treatment time 10 min): +
viable colony ([3]; CHX 100 μg/ml, treatment time 30 min): +
viable colony ([3]; CHX 100 μg/ml, treatment time 60 min): −
viable colony ([3]; CHX 200 μg/ml, treatment time 0 min): +
viable colony ([3]; CHX 200 μg/ml, treatment time 1 min): +
viable colony ([3]; CHX 200 μg/ml, treatment time 2 min): +
viable colony ([3]; CHX 200 μg/ml, treatment time 3 min): +
viable colony ([3]; CHX 200 μg/ml, treatment time 5 min): +
viable colony ([3]; CHX 200 μg/ml, treatment time 10 min): +
viable colony ([3]; CHX 200 μg/ml, treatment time 30 min): −
viable colony ([3]; CHX 200 μg/ml, treatment time 60 min): −
viable colony ([3]; CHX 300 μg/ml, treatment time 0 min): +
viable colony ([3]; CHX 300 μg/ml, treatment time 1 min): +
viable colony ([3]; CHX 300 μg/ml, treatment time 2 min): +
viable colony ([3]; CHX 300 μg/ml, treatment time 3 min): +
viable colony ([3]; CHX 300 μg/ml, treatment time 5 min): +
viable colony ([3]; CHX 300 μg/ml, treatment time 10 min): +
viable colony ([3]; CHX 300 μg/ml, treatment time 30 min): −
viable colony ([3]; CHX 300 μg/ml, treatment time 60 min): −
viable colony ([3]; CHX 500 μg/ml, treatment time 0 min): +
viable colony ([3]; CHX 500 μg/ml, treatment time 1 min): +
viable colony ([3]; CHX 500 μg/ml, treatment time 2 min): +
viable colony ([3]; CHX 500 μg/ml, treatment time 3 min): +
viable colony ([3]; CHX 500 μg/ml, treatment time 5 min): +
viable colony ([3]; CHX 500 μg/ml, treatment time 10 min): −
viable colony ([3]; CHX 500 μg/ml, treatment time 30 min): −
viable colony ([3]; CHX 500 μg/ml, treatment time 60 min): −
viable colony ([3]; CHX 750 μg/ml, treatment time 0 min): +
viable colony ([3]; CHX 750 μg/ml, treatment time 1 min): +
viable colony ([3]; CHX 750 μg/ml, treatment time 2 min): +
viable colony ([3]; CHX 750 μg/ml, treatment time 3 min): +
viable colony ([3]; CHX 750 μg/ml, treatment time 5 min): +
viable colony ([3]; CHX 750 μg/ml, treatment time 10 min): −
viable colony ([3]; CHX 750 μg/ml, treatment time 30 min): −
viable colony ([3]; CHX 750 μg/ml, treatment time 60 min): −
viable colony ([3]; CHX 1000 μg/ml, treatment time 0 min): +
viable colony ([3]; CHX 1000 μg/ml, treatment time 1 min): +
viable colony ([3]; CHX 1000 μg/ml, treatment time 2 min): +
viable colony ([3]; CHX 1000 μg/ml, treatment time 3 min): −
viable colony ([3]; CHX 1000 μg/ml, treatment time 5 min): −
viable colony ([3]; CHX 1000 μg/ml, treatment time 30 min): −
viable colony ([3]; CHX 1000 μg/ml, treatment time 60 min): −
viability of A.a. ([3]; CHX 75-1,000 μg/ml, two-minute treatment, stop reagent added): limited viability
